Results published in patent EP0583821A1, “Atriopeptins, guanylate cyclase activators, and phosphodiesterase inhibitors as treatment for glaucoma, hydrocephalus and cerebral edema (cranial fluid volume dysfunction)” (THE GENERAL HOSPITAL CORPORATION, priority 1987, dated 1988).

How the values were obtained:
rabbits = test: CSF production by ventricular-cisternal perfusion after intraventricular drug; type: in vivo, rabbit
Method: Drug was given intraventricularly, either by bolus injection or by continuous addition (during a 10-minute period) to the CSF perfusion system. Ventricular-cisternal perfusion of Blue dextran was carried out by a closed system with active pumping both into and out of the catheters at a rate of […]. Output dye concentration was monitored continuously with an in-line photocell; and a separate, contralateral venticular catheter independently measured intracranial pressure. […] Drug was administered in an artificial CSF containing 0.01% rabbit serum albumin (RSA) and 0.25 mM ascorbate. […] In one animal, there was no change in CSF secretion rate, and in no case was there an increase in CSF production. […] During a period of 100 minutes, secretion rate dropped by 70%.

albino rabbits = test: Intraocular pressure after unilateral intravitreal injection; type: in vivo, rabbit
Method: The measurement of intraocular pressure (IOP), was performed using procedures similar to those described in Nathanson, Brit. J. Pharmacol., 73:97 (1981) and Nathanson, Current Eye Res., 4:191 (1985). Briefly, male (3-5 kg), New Zealand white rabbits were housed under standard conditions and exposed to a 12 hr light-dark cycle. IOP was measured with a Perkins applanation tonometer after topical anesthesia with 0.4% benoxinate (and 0.25% sodium fluorescein). The tonometer had been calibrated previously by connecting the anterior chamber of enucleated rabbit eyes to a manometer (and reservoir) and taking tonometer readings at different pressures. A number of preliminary IOP readings were made in order to accommodate the animals to the measurement procedure. Readings were then taken just prior to drug or vehicle injection and at 3, 9, 20, 27, 44, 51, 72, and 144 hours post-injection.
Following topical anesthesia with 0.4% benoxinate, rabbits received rat atrial natriuretic peptide 1-28 (rANP) via a 10 microliter, intravitreal injection, through a 30g 1/2" needle, the tip of which was positioned at the approximate center of the eye. Drug was dissolved in a solution of artificial aqueous humor containing (in mmol/liter): NaCl 130, KCl 2.7, […] 18.3, MgCl₂ 1.33, CaCl₂ 1.5, Glucose 10, HEPES 20, and L-ascorbic acid, 2.5. The contralateral eye received a 10 microliter injection of vehicle alone. In order to evaluate the possible effects of intravitreal injection, per se, on IOP, additional rabbits received a 10 microliter intravitreal injection of vehicle in one eye only.
The contralateral eye received intravitreal injection of vehicle alone. Over a period of 9 hours, the ipsilateral eyes underwent a marked decline in pressure of about 5mm (Hg). This degree of hypotension persisted until about 48 hours post-injection and then underwent a slow recovery over the following four days. The decrease in pressure, compared with pre-injection IOP, was statistically significant at all time points from 3 to 72 hours post-injection. Values shown are mean ± SEM. Filled circles represent the IOP in the ipsilateral eye; open circles represent the IOP in the contralateral eye. *(p < .05); **(p < .01), for paired Students T-test relative to preinjection pressure (time 0). […] During the entire period, no affect on pupillary diameter of either the ipsilateral or contralateral eye was noted.
This contralateral decrease was statistically significant (p <.05 vs. pre-injection IOP) at 20 and 44 hours following injection. […]

choroid epithelial cells = test: Intracellular cyclic GMP content of isolated choroid epithelial cells; type: cell-based, rabbit; settings: 5 minutes incubation; 1 uM rANP; PDE inhibitors theophylline (10 mM) and IBMX (0.5 mM)
Method: The effect of rANP on membrane-bound guanylate cyclase and adenylate cyclase activity in various brain-barrier tissues and tissue fractions from rabbit was compared with its activity in cerebrum and cerebellum. Guanylate cyclase was measured as the rate of cyclic GMP formation by modifications of the technique of Waldman et al., supra, incorporated herein by reference. Briefly, tissues were homogenized (10 mg wet weight per milliliter) in 50 mM tris-HCl, pH 8.0, 1 mM EDTA, 1 mM dithiothreitol, and 250 mM sucrose and centrifuged at 100,000g to obtain a P1 pellet. […] Cyclic GMP formed was subsequently measured by radioimmunoassay as described in example 6, infra. […] Adenylate cyclase activity in P1 fractions was measured according to the method described by Nathanson, et al., Science; 204:843 (1979); Mol. Pharmacol. 18:199 (1980), see Figure 1C . […]
Purified secretory epithelial cells were isolated and maintained in tissue culture medium in the absence of any hormones. […] More diffuse staining was found only in epithelium and not in vascular or stromal components of choroid epithelial cells as determined by fluorescein optics. […]
For one experiment, the mean ± range is shown for duplicate determinations, each assayed in triplicate for cyclic GMP content. […] After the cells were incubated for 5 minutes, they were killed and their cyclic GMP content was determined. […]

guanylate cyclase = test: Guanylate cyclase in pia-arachnoid preparation; type: biochemical, rabbit
Method: The effect of rANP on membrane-bound guanylate cyclase and adenylate cyclase activity in various brain-barrier tissues and tissue fractions from rabbit was compared with its activity in cerebrum and cerebellum. Guanylate cyclase was measured as the rate of cyclic GMP formation by modifications of the technique of Waldman et al., supra, incorporated herein by reference. Briefly, tissues were homogenized (10 mg wet weight per milliliter) in 50 mM tris-HCl, pH 8.0, 1 mM EDTA, 1 mM dithiothreitol, and 250 mM sucrose and centrifuged at 100,000g to obtain a P1 pellet. Reaction tubes contained (in 0.3 ml), 50 mM tris, pH 7.6, 6 mM MnCl₂, 0.5 mM 3-isobutyl, 1-methylxanthine (IBMX), 10 mM theophylline, 3 mM GTP, hormone (in 0.03 ml containing 2.5 mM ascorbic acid and 0.1% bovine serum albumin), and 0.06 ml of P1 fraction (40 to 60 ug of protein). The reaction (4 minutes at 30°C) was started by addition of GTP and terminated by addition of 0.3 ml of 150 mM sodium acetate (pH 4.0) and boiling for 3 minutes. Cyclic GMP formed was subsequently measured by radioimmunoassay as described in example 6, infra. Under these conditions, guanylate cyclase activity was linear with time and tissue concentration. Adenylate cyclase activity in P1 fractions was measured according to the method described by Nathanson, et al., Science; 204:843 (1979); Mol. Pharmacol. 18:199 (1980), see Figure 1C . […] Neurosci. […]

Ser-Leu-Arg-Arg-atriopeptin III (APIII) [rANP 1-28]
mean decrease in rate of CSF production (rabbits; 13 positive responses, SEM, 30 pmol bolus or 3 to 30 pmol/min for 10 minutes intraventricular): 35.3% ± 6.9% | drop of CSF secretion rate (rabbits; bolus injection of 30 pmol into the lateral ventricle, during 100 minutes, Fig. 3): 70% | positive responses (decrease in CSF production) (rabbits; intraventricular bolus or infusion): 13 of 14 | persistence of hypotension post-injection (albino rabbits; 0.3 nmoles intravitreal): about 48 hours | IOP in the contralateral, vehicle-injected eye (albino rabbits; 0.3 nmoles intravitreal in ipsilateral eye): also showed a decrease | decline in intraocular pressure, ipsilateral eye (albino rabbits; 0.3 nmoles intravitreal, eight albino rabbits, over a period of 9 hours): about 5 mm (Hg) | effect on pupillary diameter (albino rabbits; ipsilateral or contralateral eye, entire period): no affect | increase in cyclic GMP content (choroid epithelial cells): more than an eightfold increase | degree of enzyme stimulation (guanylate cyclase): 15%
